Measured values from ChEMBL document CHEMBL1201862, “PubChem BioAssay data set” (2004).
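Method: 48-hour compound exposure of cells in 96-well plates, five concentrations, linear interpolation of endpoints. GI50 is the concentration that inhibits growth by half.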 Activity calls are given as the source filed them. Rule as the data show it: active = GI50 up to about 1.1 µM and inactive = higher.

How the values were obtained:
Test in all cases: inhibition of tumour cell growth, NCI panel, 48 h
HT-29 = tested on: HT-29
SK-OV-3 = tested on: SK-OV-3
UACC-257 = tested on: UACC-257
SNB-75 = tested on: SNB-75
HOP-92 = tested on: HOP-92
A498 = tested on: A498
SK-MEL-5 = tested on: SK-MEL-5
HOP-62 = tested on: HOP-62
HL-60 = tested on: HL-60
U-251 = tested on: U-251
Malme-3M = tested on: Malme-3M
SN12C = tested on: SN12C
786-0 = tested on: 786-0
SR = tested on: SR
CAKI-1 = tested on: CAKI-1
NCI-H522 = tested on: NCI-H522
OVCAR-5 = tested on: OVCAR-5
SNB-19 = tested on: SNB-19
NCI-H226 = tested on: NCI-H226
SF-539 = tested on: SF-539

Measured: GI50

CCCn1cnc2c(SCc3ccc(Cl)cc3)nc(N)nc21
inactive: HT-29 19.9 µM | SK-OV-3 27.9 µM | UACC-257 18.5 µM | SNB-75 21.9 µM | HOP-92 44.5 µM | A498 16.7 µM | SK-MEL-5 15.3 µM | HOP-62 17.3 µM | HL-60 18.2 µM | U-251 23.1 µM | Malme-3M 26.9 µM | SN12C 19.7 µM | 786-0 29.6 µM | SR 13.5 µM | CAKI-1 24.8 µM | NCI-H522 16.5 µM | OVCAR-5 28.4 µM | SNB-19 51.6 µM

O=C(NC1CCCCC1)c1cc2ccccc2cc1O
inactive: HT-29 20.4 µM | SK-OV-3 49.1 µM | UACC-257 36.6 µM | SNB-75 45.5 µM | HOP-92 22.3 µM | A498 25.4 µM | SK-MEL-5 19.6 µM | HOP-62 35.7 µM | NCI-H226 17.3 µM | HL-60 22.6 µM | U-251 44.2 µM | 786-0 26.3 µM | SR 38.7 µM | CAKI-1 47 µM | SF-539 24 µM | SNB-19 31.1 µM

c1ccc2c(c1)nnn2CN1CCOCC1
inactive: HT-29 > 100 µM | UACC-257 > 100 µM | HOP-92 45.8 µM | A498 > 100 µM | SK-MEL-5 > 100 µM | HOP-62 > 100 µM | NCI-H226 > 100 µM | HL-60 29.2 µM | U-251 > 100 µM | Malme-3M 41.8 µM | SN12C 39.8 µM | 786-0 > 100 µM | SR 25 µM | CAKI-1 75.7 µM | NCI-H522 > 100 µM | OVCAR-5 > 100 µM | SNB-19 > 100 µM

COC(C/C=C\C=C\CC/C=C/CC(C)/C=C/C(=C\C(=O)O)CC(=O)O)/C(C)=C\C=C(/C)C(=O)O (configuration not stated)
inactive: HT-29 > 100 µM | SK-OV-3 > 100 µM | UACC-257 > 100 µM | SNB-75 58.3 µM | HOP-92 > 100 µM | A498 > 100 µM | SK-MEL-5 99.3 µM | HOP-62 > 100 µM | U-251 > 100 µM | Malme-3M > 100 µM | SN12C > 100 µM | SR > 100 µM | CAKI-1 > 100 µM | NCI-H522 > 100 µM | OVCAR-5 > 100 µM | SNB-19 > 100 µM

Cc1ccc(/N=N/NCCCCN/N=N/c2ccc(C)cc2)cc1
inactive: HT-29 > 100 µM | SK-OV-3 > 100 µM | UACC-257 > 100 µM | SNB-75 > 100 µM | HOP-92 25.3 µM | A498 54.6 µM | SK-MEL-5 23.4 µM | HOP-62 47.9 µM | NCI-H226 > 100 µM | HL-60 1.75 µM | U-251 > 100 µM | Malme-3M > 100 µM | SN12C > 100 µM | SR 17.5 µM | CAKI-1 > 100 µM | SF-539 > 100 µM | OVCAR-5 > 100 µM

O=S(=O)(N/N=C/c1cccc(/C=N/NS(=O)(=O)c2ccccc2)c1)c1ccccc1
inactive: HT-29 86.1 µM | SK-OV-3 > 100 µM | UACC-257 39.3 µM | SNB-75 > 100 µM | HOP-92 38.9 µM | A498 > 100 µM | SK-MEL-5 39.2 µM | HOP-62 > 100 µM | NCI-H226 > 100 µM | HL-60 63.4 µM | U-251 69.5 µM | Malme-3M > 100 µM | SN12C > 100 µM | 786-0 > 100 µM | SR 58.1 µM | SF-539 > 100 µM | OVCAR-5 > 100 µM

O=C(Nn1c(-c2ccccc2)nc2ccccc2c1=O)c1cccc([N+](=O)[O-])c1
inactive: HT-29 79.8 µM | SK-OV-3 > 100 µM | UACC-257 > 100 µM | SNB-75 > 100 µM | HOP-92 35.2 µM | A498 48.9 µM | SK-MEL-5 37.6 µM | HOP-62 > 100 µM | NCI-H226 52.8 µM | HL-60 > 100 µM | U-251 62.4 µM | SN12C > 100 µM | 786-0 > 100 µM | SR 47.2 µM | NCI-H522 67 µM | SF-539 > 100 µM | OVCAR-5 > 100 µM | SNB-19 61.1 µM

CN1C(NN)=NS(=O)(=O)c2ccccc21
inactive: HT-29 > 100 µM | SK-OV-3 > 100 µM | UACC-257 > 100 µM | HOP-92 > 100 µM | A498 > 100 µM | SK-MEL-5 > 100 µM | HOP-62 > 100 µM | NCI-H226 > 100 µM | HL-60 > 100 µM | U-251 > 100 µM | SN12C > 100 µM | 786-0 > 100 µM | SR 8.51 µM | CAKI-1 > 100 µM | NCI-H522 > 100 µM | SF-539 > 100 µM | OVCAR-5 > 100 µM | SNB-19 > 100 µM
